Data taken from patent publication US8771973B2, “Methods for treating bleeding disorders using sulfated polysaccharides” (Baxter Healthcare S.A., priority 2004, dated 2014).

Columns and labels:
[1] = system: Hem-A plasma; test: dPT assay, Hem-A plasma in absence of exogenous TFPI; assay type: biochemical, human; details: Hem-A, no exogenous TFPI, no NASP 69 seconds
Protocol: (§1) The dPT assay used was a modified standard clinical PT assay (Nordfang et al. (1991) Thromb Haemost 66:464-467; Welsch et al. (1991) Thrombosis Research 64: 213-222). SIMPLASTIN EXCEL thromboplastin reagent (Organon Teknika) was reconstituted with the manufacturer's diluent and further diluted 1:100 in 0.9% saline. The thromboplastin reagent, 25 mM CaCl2, and plasma samples were pre-warmed to 37° C. before initiating the assay. 100 μl of thawed plasma was aliquoted into microcentrifuge tubes. […] 100 μl of the diluted thromboplastin reagent and 100 μl of 25 mM CaCl2 were added to fibrin cups (Fisher) prewarmed to 37° C. 100 μl of plasma (normal or hemophilic) containing the test agent or saline control was added to the fibrin cups containing the thromboplastin reagent and CaCl2 to initiate clotting. The time for plasma clotting was measured with a BBL FIBROSYSTEM fibrometer.
The ability of NASPs to accelerate clotting of factor-deficient plasma in the absence of TFPI supplementation was also tested in dPT assays. A procoagulant response, if observed, may be related to neutralization of endogenous TFPI activity, which is present in human plasma at approximately 100 ng/ml (Nordfang et al., supra), largely associated with lipoprotein or platelets (Broze et al. (1992) Semin. Hematol. 29:159-169; Broze et al. (2003) J. Thromb. Haemost. 1:1671-1675).
The ability of NASPs to accelerate clotting of Hem-A plasma in the absence of exogenous TFPI was tested. Fucoidan or PPS were titrated into Hem A plasma and dPT assays were performed. Additionally, the dose-response to factor VIIa was analyzed as a positive control for amplifying extrinsic pathway activation.

[2] = target: T1, TFPI (Homo sapiens, UniProt P10646); test: dPT assay, inhibition of TFPI activity in Hem-A plasma without preincubation; assay type: biochemical; details: no preincubation; for clotting time, dPT: Hem-A + TFPI, HemA + TFPI 183, alone 45 seconds
T1 construct: purchased American Diagnostica (Stamford, Conn.)
T1 sequence (P10646 29-304): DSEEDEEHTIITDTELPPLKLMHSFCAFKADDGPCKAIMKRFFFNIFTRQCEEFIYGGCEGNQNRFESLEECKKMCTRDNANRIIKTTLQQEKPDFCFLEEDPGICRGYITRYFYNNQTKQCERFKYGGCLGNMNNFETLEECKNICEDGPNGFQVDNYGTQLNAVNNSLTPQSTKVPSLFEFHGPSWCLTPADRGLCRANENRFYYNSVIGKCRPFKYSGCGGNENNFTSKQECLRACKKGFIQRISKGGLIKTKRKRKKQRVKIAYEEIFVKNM
Protocol: as §1
Experiments were repeated without a preincubation of the sulfated polysaccharides with TFPI prior to exposure to plasma. To extend the stringency of the test for NASP inhibition of TFPI activity, TFPI was added to the plasma before the NASP was added.

[3] = system: Factor VII-deficient plasma; test: dPT assay, Factor VII-deficient plasma in absence of exogenous TFPI; assay type: biochemical, human; details: FVII-deficient plasma, no NASP + 0.1 nM FVIIa 173 seconds
Protocol: as §1
Regulation of clotting in Factor VII-deficient plasma was also evaluated in dPT assays. […] Addition of FVIIa to approximately 0.1 nM restored the clotting time to about 150 seconds (data not shown). Such a variation in clotting time shown in the dPT assay mimics some forms of human factor VII-deficiency. Titration of fucoidan and PPS into FVII-deficient plasma accelerated clotting times.

[4] = target: T1, TFPI; test: dPT assay, inhibition of TFPI activity in Hem-B plasma, TFPI preincubated with NASP; assay type: biochemical; details: Hem-B + TFPI, plasma alone 46, + TFPI 101 seconds
Protocol: as §1
Inhibition of TFPI activity by NASPs was assessed in dPT clotting assays with normal or hemophilic plasma and added recombinant TFPI. Diluted recombinant TFPI was preincubated with NASPs for 5 minutes at room temperature before plasma was added. After addition of plasma, the mixture was incubated for an additional 25 minutes followed by dPT initiation.
The acceleration of plasma clotting by the NASPs in the presence of TFPI was also tested in Hem-B and normal plasma.

[5] = system: Hem-A plasma containing 1.25% FACT plasma; test: aPTT assay, NASPs in 1.25% FACT diluted in Hem-A plasma; assay type: biochemical, human; details: for concentration producing approximately 50% prolongation in clotting time, fold higher than for heparin: APTT, Hem-A plasma
Protocol: Activated Partial Thromboplastin Time (aPTT) Assay The aPTT assay was performed as described previously with modifications (PDR Staff Physicians' Desk Reference. 2004, Anderson Lo, Barrowcliffe, T. W., Holmer, E., Johnson, E. A., Sims, G. E. C. Thromb. Res. 1976; 9:575-580). 25 mM CaCl2 and fibrin cups (Fisher) were pre-warmed to 37° C. 0.1 ml of thawed human plasma (normal or hemophilic) was added to warmed test tubes. 5 μl of saline (e.g. Sigma) or 5 μl of test agent (e.g., NASP) dissolved in saline was incubated with 95 μl of plasma for 30 minutes at room temperature. APTT reagent (e.g. Organon Teknika) was reconstituted in 3 ml distilled water and 0.1 ml of the reconstituted solution containing the APTT reagent was added to each test tube. 0.2 ml of plasma containing the test agent or saline control and aPTT reagent were transferred from test tubes to pre-warmed fibrin cups and incubated for 2-3 minutes. 0.1 ml of pre-warmed 25 mM CaCl2 was added to initiate clotting, and the time for plasma clotting was measured with a BBL FIBROSYSTEM fibrometer.
The effect of NASPs on the clotting time of plasma was determined as follows: 5 μl of a NASP was added to 95 μl of 1.25% FACT diluted in human Hem-A plasma and incubated at room temperature for 30 minutes. aPTT assays were performed to determine plasma clotting time as described in Example 1.

Row | Substance | clotting time, dPT ([1]; 0.16 nM) [s] | clotting time, dPT ([1]; 0.8 nM) [s] | clotting time, dPT ([1]; 4 nM) [s] | clotting time, dPT ([1]; 20 nM) [s] | clotting time, dPT ([1]; 100 nM) [s] | clotting time, dPT ([2]; 0.8 nM) [s] | clotting time, dPT ([2]; 4 nM) [s] | clotting time, dPT ([2]; 20 nM) [s] | clotting time, dPT ([2]; 100 nM) [s] | clotting time, dPT ([2]; 500 nM) [s] | clotting time, dPT ([3]; 0.8 nM) [s] | clotting time, dPT ([3]; 4 nM) [s] | clotting time, dPT ([3]; 20 nM) [s] | clotting time, dPT ([3]; 100 nM) [s] | clotting time, dPT ([3]; 500 nM) [s] | clotting time, dPT ([4]; 0.16 nM) [s] | clotting time, dPT ([4]; 0.8 nM) [s] | clotting time, dPT ([4]; 4 nM) [s] | clotting time, dPT ([4]; 20 nM) [s] | clotting time, dPT ([4]; 100 nM) [s] | other results
1 | Fucoidan | 70 | 68 | 63 | ~55 | 56 | 210 | 78 | 59 | 54 | 90 | 168 | 147 | 120 | 74 | 111 | 108 | 95 | 80 | 54 | 50 | concentration window for significant clotting acceleration ([2]; Hem A plasma + TFPI): greater than 100 fold; clotting time, dPT ([4]; 500 nM): 60 s; clotting time, aPTT ([5]; 0.16 nM): 71 s; clotting time, aPTT ([5]; 0.8 nM): 70 s; clotting time, aPTT ([5]; 4 nM): 71 s; clotting time, aPTT ([5]; 20 nM): 75 s; clotting time, aPTT ([5]; 100 nM): 119 s; concentration producing approximately 50% prolongation in clotting time, fold higher than for heparin [5]: 10 fold
2 | Pentosan Polysulphate Sodium [PPS] | 69 | 68 | 66 | 62 | 60 | 192 | 156 | 81 | 76 | 73 | 198 | 181 | 159 | 142 | 113 | 106 | 90 | 82 | 65 | 52 | clotting time, dPT ([4]; 500 nM): 56 s; clotting time, aPTT ([5]; 0.8 nM): 70 s; clotting time, aPTT ([5]; 4 nM): 71 s; clotting time, aPTT ([5]; 20 nM): 72 s; clotting time, aPTT ([5]; 100 nM): 80 s; clotting time, aPTT ([5]; 500 nM): 113 s; concentration producing approximately 50% prolongation in clotting time, fold higher than for heparin [5]: 100 fold
